Experimental data reported in ChEMBL document CHEMBL1144179, “Molecular modeling aided design of nicotinic acid receptor GPR109A agonists” (Bioorg Med Chem Lett, 2008).

How the values were obtained:
[1] = biological target: Hydroxycarboxylic acid receptor 2 (Homo sapiens) (UniProt Q8TDS4); experiment: Displacement of [3H]nicotinic acid from human GPR109A receptor expressed in CHO-K1 cells at 2.5 uM; type: cell-based
[2] = biological target: Hydroxycarboxylic acid receptor 2 (Homo sapiens) (UniProt Q8TDS4); experiment: Displacement of [3H]nicotinic acid from human GPR109A receptor expressed in CHO-K1 cells at 25 uM; type: cell-based
[3] = Plasma clearance in mouse; type: ADME, organism-based
[4] = Half life in mouse; type: ADME, organism-based; conditions: in vivo
[5] = Cmax in mouse; type: ADME, organism-based; conditions: in vivo
[6] = Volume of distribution at steady state in mouse; type: ADME, organism-based; conditions: in vivo, read-out: Vdss
Mus musculus = experiment: Induction of vasodilation in mouse assessed as arbitrary units from vasodilation AUC curve at 100 mg/kg; type: functional
[7] = Oral bioavailability in mouse; type: ADME, organism-based; conditions: in vivo

**Q.** For COc1ccc(OCC(=O)Nc2ccccc2C(=O)O)cc1, which Activity [1] is on record?
**A.** 69%

**Q.** And the Activity [2]?
**A.** 33%

**Q.** Which clearance [3] does the source give for O=C(CCc1ccc2cc(O)ccc2c1)Nc1ccccc1C(=O)O here?
**A.** 6.2 mL/min/kg

**Q.** What about the half-life [4] of the same compound?
**A.** 3.2 h

**Q.** And the Cmax [5]?
**A.** 6.6 µM

**Q.** And the Vd [6]?
**A.** 0.7 L/kg

**Q.** What about the Activity (Mus musculus) of the same compound?
**A.** 59

**Q.** What about the bioavailability [7] of the same compound?
**A.** 55%

**Q.** What does the source list for O=C(CCc1ccccc1)Nc1ccccc1C(=O)O?
**A.** Activity [1]: 88%; Activity [2]: 52%

**Q.** Which Activity (Mus musculus) does the source give for O=C(O)c1cccnc1 [NIACIN] here?
**A.** 707

**Q.** With O=C(COc1ccccc1)Nc1ccccc1C(=O)O as the compound, how does the Activity [1] read?
**A.** 78%

**Q.** And the Activity [2]?
**A.** 40%
